Reference: ChEMBL document CHEMBL1201862, “PubChem BioAssay data set” (2004)
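Five concentrations, 48 hours, 96-well plates. GI50 = concentration required for 50% inhibition of growth.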 Calls of active or inactive are those of the source. No stated cut-off is given here; in the data, active = GI50 up to about 1.1 µM and inactive = higher.

How the values were obtained:
Assay in all cases: NCI tumour cell line growth inhibition, 48 h
786-0 = test system: 786-0
CCRF-CEM = test system: CCRF-CEM
HL-60 = test system: HL-60
HT-29 = test system: HT-29
K562 = test system: K562
LOX IMVI = test system: LOX IMVI
M14 = test system: M14
MCF7 = test system: MCF7
MDA-N = test system: MDA-N
Malme-3M = test system: Malme-3M
NCI-H23 = test system: NCI-H23
NCI-H460 = test system: NCI-H460
SF-295 = test system: SF-295
SK-MEL-28 = test system: SK-MEL-28
SK-OV-3 = test system: SK-OV-3
SNB-19 = test system: SNB-19
SNB-75 = test system: SNB-75
SR = test system: SR
SW-620 = test system: SW-620
UACC-257 = test system: UACC-257

Measured: GI50

CC(=O)OC1CCC2(C)C(CCC3C4CC=C(C5(C)OCCO5)C4(C)CCC32)C1 (stereo not given)
inactive: 786-0 30.4 µM | CCRF-CEM 19.5 µM | HL-60 19.9 µM | HT-29 19.5 µM | K562 25.1 µM | LOX IMVI 16.9 µM | M14 23 µM | MCF7 22.6 µM | MDA-N 20.3 µM | Malme-3M 22.1 µM | NCI-H23 25.6 µM | NCI-H460 20 µM | SF-295 26.1 µM | SK-MEL-28 21.2 µM | SK-OV-3 47.9 µM | SNB-19 30.2 µM | SNB-75 28.8 µM | SR 17.1 µM | SW-620 21 µM | UACC-257 18.7 µM

CC(C)OC(=O)c1ccc(CCc2cc(O)c(Br)cc2O)cc1
inactive: 786-0 12 µM | CCRF-CEM 3.92 µM | HL-60 5.85 µM | HT-29 18.7 µM | K562 8.65 µM | LOX IMVI 8.04 µM | M14 15.6 µM | MCF7 11.7 µM | MDA-N 9.55 µM | Malme-3M 17.2 µM | NCI-H23 8.85 µM | NCI-H460 18.6 µM | SF-295 17.3 µM | SK-MEL-28 13.9 µM | SK-OV-3 16.6 µM | SNB-19 14.8 µM | SNB-75 21 µM | SR 23.7 µM | SW-620 8.65 µM | UACC-257 13.6 µM

COc1ccc(Oc2cnn(C(Br)(Br)C(C)=O)c(=O)c2Br)cc1
inactive: 786-0 13.9 µM | CCRF-CEM 1.82 µM | HL-60 1.97 µM | HT-29 15.3 µM | K562 3.85 µM | LOX IMVI 11 µM | M14 13.9 µM | MCF7 15.4 µM | MDA-N 10.3 µM | Malme-3M 17.1 µM | NCI-H23 17.9 µM | NCI-H460 18.8 µM | SF-295 18.2 µM | SK-MEL-28 16 µM | SK-OV-3 24.3 µM | SNB-19 24.5 µM | SNB-75 15 µM | SR 1.69 µM | SW-620 4.56 µM | UACC-257 15.1 µM
